Molecules are shown by their SMILES. Like-named read-outs stand apart in the source and are kept apart here.

In one data set the test system is hSGLT2 over hSGLT1. The arrangement: method as in Nomura et al. [2010]. To be noted: from IC50; ref Nomura et al. [2010]; cited from earlier work.
Data set [1] addresses T1, hSGLT2 (Homo sapiens, UniProt P31639).
T1 sequence (P31639 1-672): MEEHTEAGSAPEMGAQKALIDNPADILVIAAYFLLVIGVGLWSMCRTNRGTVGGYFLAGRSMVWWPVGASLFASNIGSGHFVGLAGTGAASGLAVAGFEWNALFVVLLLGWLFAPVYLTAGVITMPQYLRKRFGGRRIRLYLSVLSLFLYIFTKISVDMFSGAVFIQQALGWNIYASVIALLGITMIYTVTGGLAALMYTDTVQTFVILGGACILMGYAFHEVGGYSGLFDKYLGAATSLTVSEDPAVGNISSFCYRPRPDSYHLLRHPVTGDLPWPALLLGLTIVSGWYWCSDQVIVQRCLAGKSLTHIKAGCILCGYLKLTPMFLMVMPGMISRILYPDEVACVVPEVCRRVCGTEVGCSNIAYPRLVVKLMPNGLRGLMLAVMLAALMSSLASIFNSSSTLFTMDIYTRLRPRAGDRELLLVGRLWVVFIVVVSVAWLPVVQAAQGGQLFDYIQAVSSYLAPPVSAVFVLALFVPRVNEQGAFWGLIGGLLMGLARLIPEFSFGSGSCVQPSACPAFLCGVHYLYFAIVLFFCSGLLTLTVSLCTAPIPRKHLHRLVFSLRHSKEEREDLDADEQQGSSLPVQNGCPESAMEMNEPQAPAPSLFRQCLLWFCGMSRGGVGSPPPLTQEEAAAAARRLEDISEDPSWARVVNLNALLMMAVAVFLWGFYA
The data set can be described thus: [14C]-αMDG uptake in HEK-293T cells expressing hSGLT2. Format: cell-based. Set-up: transfected with 1 μg of the vector containing the hSGLT2 or hSGLT1 coding region; expressed in transfected cells; host or cells: HEK-293T. The protocol: Uptake was normalized to total cellular protein.
We decided to use two different approaches due to the fact that hSGLT2 has low expression, yielding small glucose‐induced currents. For radiotracer uptake experiments, tracer entry in the cell is measured over the period of 30 min leading to a higher sensitivity of the method.

Data set [2] concerns the target T2, hSGLT1 (Homo sapiens, UniProt P13866).
T2 sequence (P13866 1-664): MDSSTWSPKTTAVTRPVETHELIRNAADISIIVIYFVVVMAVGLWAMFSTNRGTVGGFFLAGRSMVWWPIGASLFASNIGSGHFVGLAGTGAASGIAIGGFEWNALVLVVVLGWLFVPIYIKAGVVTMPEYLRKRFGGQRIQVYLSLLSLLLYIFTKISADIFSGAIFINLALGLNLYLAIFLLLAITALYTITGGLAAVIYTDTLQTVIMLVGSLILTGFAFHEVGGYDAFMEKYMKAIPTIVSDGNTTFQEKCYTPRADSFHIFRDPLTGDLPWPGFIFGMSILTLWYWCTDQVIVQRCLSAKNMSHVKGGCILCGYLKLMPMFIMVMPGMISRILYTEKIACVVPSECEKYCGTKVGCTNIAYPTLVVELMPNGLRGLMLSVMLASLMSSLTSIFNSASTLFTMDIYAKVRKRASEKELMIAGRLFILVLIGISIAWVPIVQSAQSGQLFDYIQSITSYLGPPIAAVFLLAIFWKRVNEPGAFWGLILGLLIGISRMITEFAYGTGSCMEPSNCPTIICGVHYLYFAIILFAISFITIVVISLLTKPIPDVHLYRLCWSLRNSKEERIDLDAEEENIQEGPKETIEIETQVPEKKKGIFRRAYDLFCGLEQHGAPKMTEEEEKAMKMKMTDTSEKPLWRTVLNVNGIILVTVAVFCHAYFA
Put plainly: Whole-cell patch clamp, inward glucose current with inhibitor in the intracellular (pipette) solution, hSGLT1. In kind it is cell-based. Set-up: transfected with 1 μg of the vector containing the hSGLT2 or hSGLT1 coding region; expressed in transfected cells; host or cells: HEK-293T. An excerpt: (§1) The intracellular NaCl concentration was maintained at either 5 or 150 mmol/L using CsCl to replace NaCl (Fig. 5A and B).
A general note: In patch-clamp work, channel activity is measured electrically.

In data set [3] the target is T1, hSGLT2. Set-up: method as in Koga et al. [2013]. As to conditions: ref Koga et al. [2013], cited from earlier work.
The target in data set [4] is T2, hSGLT1. To be noted: 300 nmol/L TA-3404, 50 μmol/L α-MDG, HEK-293T, 37°C.
Procedure: In brief, cells were incubated for 30 min in 50 μmol/L [^14C]‐α‐Methyl‐D‐glucopyranoside (GE HealthCare Life Sciences, Piscataway, NJ), a specific substrate for SGLTs, and washed in cold Choline buffer three times. The cells were solubilized and a sample was assayed using scintillation counting. Uptake was normalized to total cellular protein. For each tested condition, the sample size was n = 3–4 wells and each experiment was repeated at least twice.
The target in data set [5] is T1, hSGLT2. The data set can be described thus: Whole-cell patch clamp, inward glucose current with inhibitor in the intracellular (pipette) solution, hSGLT2. The arrangement: transfected with 1 μg of the vector containing the hSGLT2 or hSGLT1 coding region; expressed in transfected cells; host or cells: HEK-293T. In kind it is cell-based.
Text: as §1

On the set-up of data set [6]: method as in Koga et al. [2013]. To be noted: ref Koga et al. [2013]; cited from earlier work.
Data set [7] addresses T1, hSGLT2. The data set can be described thus: Whole-cell patch clamp, glucose-induced current, extracellular inhibitor, HEK-293T cells expressing hSGLT2. In kind it is cell-based. Set-up: transfected with 1 μg of the vector containing the hSGLT2 or hSGLT1 coding region; expressed in transfected cells; host or cells: HEK-293T.
For data set [8], the target named is T2, hSGLT1. The data set can be described thus: Whole-cell patch clamp, glucose-induced current, extracellular inhibitor, HEK-293T cells expressing hSGLT1.
Procedure: In brief, 2 days after transfection cells were plated on 12‐mm poly‐L‐lysine‐coated glass coverslips and selected on the basis of fluorescence intensity using a Nikon diaphot epifluorescence microscope (Nikon, Tokyo, Japan). During the experiment cells were kept at the holding potential Vh = −60 mV. […] Currents were filtered at 2 kHz and digitized at 1 kHz.
Glucose currents (IGlu) were obtained by subtracting the baseline current recorded in Na^+ buffer to the total current measured in Na^+ buffer + glucose: [drawing 1]
The inhibition constant (IC50) was determined by measuring the sugar‐dependent steady‐state current or radiotracer uptake as a function of external inhibitor concentration.
The D‐glucose‐coupled current recovery follows an exponential time course with time constant 1/koff and half‐time for recovery (t1/2,off) related to the off rate: [drawing 3]
The ON rate (kon) is calculated from the empirically measured Ki values and koff values: [drawing 4]
To calculate the dissociation constant (koff) we measured the recovery time of SGLT glucose‐induced current when the inhibitor is rapidly removed from the extracellular solution.
The conditions of data set [9]: after 24 h, single clinical oral dose; ref Hummel et al. [2012]; cited from earlier work.
The target in data set [10] is T1, hSGLT2. Set-up: transfected with 1 μg of the vector containing the hSGLT2 or hSGLT1 coding region; expressed in transfected cells; host or cells: HEK-293T. To be noted: ref Hummel et al. [2011], cited from earlier work.
The test system of data set [11] is renal glucose reabsorption. As to conditions: cited from earlier work.
Setting [12] is: physiological conditions, HEK293T cells.
The mark [13] stands for this setting: ref Chasis et al. [1933], Silverman [1974].

On to `Cc1ccc([C@@H]2O[C@H](CO)[C@@H](O)[C@H](O)[C@H]2O)cc1Cc1ccc(-c2ccc(F)cc2)s1` [Canagliflozin, canagliflozin], for which, in the data set with hSGLT2 over hSGLT1, the “selectivity for hSGLT2 over hSGLT1” value was 414 fold.
The IC50 is the point on the concentration scale where inhibition reaches its midpoint. Broadly, the Ki is the dissociation constant of the complex between target and ligand, obtained from inhibition or displacement. Read a low Ki as higher affinity. As for `OC[C@H]1O[C@@H](c2ccc(Cl)c(Cc3ccc(-c4ccc(F)nc4)s3)c2)[C@H](O)[C@@H](O)[C@@H]1O` [TA‐3404], the “inhibition of hSGLT2 sugar uptake” value on hSGLT2 [1] (2 nmol/L TA-3404, 50 μmol/L α-MDG, HEK-293T, 37°C) was found to be 50%. The IC50 at hSGLT2 [1] (50 μmol/L [14C]-αMDG, 1-500 nmol/L extracellular TA-3404, HEK-293T, read-out: IC50, [14C]-αMDG uptake, hSGLT2) was 3.9 ± 2.2 nM; on hSGLT2 [1] (as stated in the abstract, read-out: IC50, extracellular inhibition of glucose inward SGLT2 transport), 2 nM; at hSGLT2 [3] (CHOK1 cells overexpressing hSGLT2, read-out: IC50, Na+-dependent 14C-α-MDG uptake, SGLT2) it was 2 nM; at hSGLT1 [8], 300 ± 61 nM. The “affinity of hSGLT2 higher than for hSGLT1” value at hSGLT2 [1] (HEK-293T) was “about 75 fold”. Besides, the Ki at hSGLT2 [1] (from IC50 (IC50 is twice the Ki), extracellular) was about 2 nM; at hSGLT1 [8] it was 150 nM. Further, the “effect on inward hSGLT1 Na+/glucose current” value at hSGLT1 [2] (200 nmol/L TA-3404 intracellular, 5 mmol/L NaCl in the pipette, 10 mmol/L glucose) is “no effect”. Moreover, the “effect on hSGLT1 glucose-induced current” value at hSGLT1 [2] (200 nmol/L TA-3404 intracellular, 150 mmol/L Na+ in the pipette) is reported as “did not detect any significant effect”. Besides, the “inhibition of Na+/glucose currents generated by hSGLT1, inhibitor in the cytoplasm” value against hSGLT1 [2] (setting [12]) is recorded as “does not inhibit”. Further, the “selectivity for SGLT2 vs. SGLT1” value at hSGLT2 [3] (CHOK1 cells, ratio of IC50) is given as ~ 350 fold. Moreover, the “inhibition of hSGLT1 uptake” value against hSGLT1 [4] is reported as 10%. The “inhibition of inward hSGLT2 Na+/glucose current” value at hSGLT2 [5] (200 nmol/L TA-3404 intracellular, 5 mmol/L intracellular Na+, 100 mmol/L glucose, -60 mV) is “did not inhibit”. Moreover, the “inhibition of inward hSGLT2 glucose current” value on hSGLT2 [5] (200 nmol/L TA-3404 intracellular, 150 mmol/L intracellular Na+) was “no significant inhibition”. For the same compound, the “intracellular affinity of hSGLT2 lower than the extracellular affinity” value at hSGLT2 [5] (intracellular versus extracellular) was “at least 100”. Also, on hSGLT2 [5] (low (5 mmol/L) and high (150 mmol/L) intracellular NaCl), the “inhibition of SGLT2 from the intracellular compartment” value was “ineffective”. The “inhibition of Na+/glucose currents generated by hSGLT2, inhibitor in the cytoplasm” value at hSGLT2 [5] (setting [12]) is reported as “does not inhibit”. In addition, the pharmacokinetic profiles result in [6] is recorded as “favorable pharmacokinetic profiles”. For the same compound, the urine glucose excretion result in [6] is on record as “increased urine glucose excretion”. The “inhibition of glucose-induced inward current, hSGLT2” value on hSGLT2 [7] (300 nmol/L extracellular TA-3404, 100 mmol/L glucose, -60 mV, 37°C) is recorded as “completely inhibited”. Besides, the “half-time of recovery of hSGLT2 current (t1/2,off)” value at hSGLT2 [7] (after removal of inhibitor, reversible ~50% component, n = 3) was 17 ± 0.5 s. Also, the “kon, hSGLT2” value on hSGLT2 [7] (calculated from Ki and koff) is 1.4 × 10^6 mol/L per sec. For the same compound, the “recovery of hSGLT2 current after removing the inhibitor” value at hSGLT2 [7] (washout, no further recovery over 5 min) is given as ~ 50%. Moreover, on hSGLT1 [8] (after removal of inhibitor, n = 5), the “half-time of recovery of hSGLT1 current (t1/2,off)” value is 5.4 ± 0.4 s. For the same compound, the “koff, hSGLT1” value at hSGLT1 [8] (from half-time of current recovery) is reported as 0.2 per sec.
In the case of `CCOc1ccc(Cc2cc([C@@H]3O[C@H](CO)[C@@H](O)[C@H](O)[C@H]3O)ccc2Cl)cc1` [dapagliflozin], the free plasma concentration in data set [9] is 25 nM. Further, the “Off rate of binding to hSGLT2” value at hSGLT2 [10] is listed as “very slow Off rate”.
As to `O=C(CCc1ccc(O)cc1)c1c(O)cc(O)cc1O[C@@H]1O[C@H](CO)[C@@H](O)[C@H](O)[C@H]1O` [phlorizin], at hSGLT2 [1] (100 μmol/L phlorizin, 50 μmol/L α-MDG, HEK-293T), the “effect on sugar uptake by hSGLT2” value is “to the level observed in untransfected cells”. Besides, in [11] (setting [13]), the glomerular filtration result is listed as “freely filtered” and the glucose reabsorption entry is listed as “completely blocks glucose reabsorption”. Also, the route of excretion result in data set [11] (ref Silverman [1974]) was “mainly excreted into the urine”. Also, the “Off rate, hSGLT2” value at hSGLT2 [10] (phlorizin) is 0.3 per sec. In addition, the “half-time of recovery of hSGLT2 current (t1/2,off)” value at hSGLT2 [10] is 24 s.

The values are drawn from article PMC4208661, “SGLT2 inhibitors act from the extracellular surface of the cell membrane” (Physiological Reports, 2014).
